Test results as given in patent US8853206B2, “Triazolium salts as PAR1 inhibitors, production thereof, and use as medicaments” (Sanofi, priority 2008, dated 2014).
Counter-ions that a name gives are not always drawn.

Legend:
PAR1 [1] = target: T1, PAR1 (Homo sapiens (Human), UniProt P25116); experiment: PAR1 binding test (radioligand displacement, membrane preparation); details: human PAR1 expressed in High Five insect cell membranes; radioligand 20 nM; read-out: Inhibition of binding IC50
Protocol: The synthesized substances were examined in a PAR1 binding test. This tested whether the substances can inhibit the binding of a radioactively labeled PAR1 agonist known from the literature at the PAR1 receptor (Ho-Sam Ahn, Mol Pharm, 51:350-356, 1997).
The human PAR1 receptor was expressed transiently in High Five insect cells. From these cells, after 48 hours, a membrane preparation was produced by standard methods, aliquoted into 10 mM Tris-HCl; 0.3 mM EDTA; 1 mM EGTA; 250 mM sucrose pH 7.5, and stored at −80° C.
The substances were preincubated with the membrane at RT for 15 minutes, then the radioligand (ALA-(para-F-Phe)-Arg-ChA-homoArg-(3,4-^3H-Tyr)-NH2; approx. 40 Ci/mMol) was added. The end concentration of the radioligand in the test buffer (50 mM Tris-HCl; 10 mM MgCl2; 1 mM EGTA; 0.1% BSA; 2% DMSO) was 20 nM, that of the membrane 1 mg/ml. After an incubation time of 60 minutes, 25 μL of the mixture were transferred to a 96-well MultiScreenHTS FB microtiter filtration plate (from Millipore), which had been pretreated beforehand with a 0.75% aqueous polyethyleneimine solution for 5 hours at RT. Thereafter, with vacuum extraction, each well was washed four times with 300 μL of buffer (50 mM Tris-HCl; 10 mM MgCl2; 1 mM EGTA). The plate was then dried overnight, 100 μl of scintillator per well were added, and the plate was analyzed after 6 hours in a Wallac MicroBeta (from PerkinElmer) liquid scintillation counter. The nonspecific binding was determined in the presence of 100 μM SCH79797 (PAR-1 antagonist; from Tocris, Cat. No. 1592) and subtracted from all measurements. The 100% value used was a control without inhibitor. The % inhibition values of a substance dilution series were used to calculate the IC50 with the aid of nonlinear regression analysis according to the 4-parameter equation.

PAR1 [2] = target: T1, PAR1; experiment: Inhibition of PAR1-mediated platelet aggregation induced by TRAP; type: cell-based; details: TRAP-induced aggregation of washed platelets from healthy volunteer donors, 96-well format
Protocol: PAR1 Determination Method: Inhibition of PAR1-Mediated Platelet Aggregation The pharmacological testing of the substances took place in platelet aggregation induced by TRAP (thrombin receptor-activating peptide) in 96-well format. For this purpose, blood was taken from healthy volunteer donors in 20 ml syringes containing 2 ml of 3.13% sodium citrate solution. After centrifugation at 150×g for 20 minutes, the platelet-rich plasma (PRP) was separated off and mixed with 1 μl of PGE1 solution (500 μg/ml in ethanol)/ml of PRP. Incubation at RT for 5 minutes was followed by centrifugation at 120×g for 15 minutes to remove the leukocytes. The leukocyte-free PRP was transferred in 5 ml portions into 15 ml PP tubes and centrifuged at 360×g for 15 minutes in order to pellet the platelets. The plasma was then decanted off and the platelet sediment from 5 ml of PRP was resuspended in 1 ml of Tyrode's (120 mM NaCl, 2.6 mM KCl, 12 mM NaHCO3, 0.39 mM NaH2PO4×H2O, 10 mM HEPES, 0.35% BSA, 5.5 mM glucose, pH 7.4) and adjusted with Tyrode's to a platelet count of 3×10^5/microliter (4). 13 ml of this cell suspension were then mixed with 866 μL of 10 mM CaCl2 solution, and 120 μL thereof were pipetted into each well of a 96-well plate containing 15 μL of the substance to be tested. After incubation at RT in the dark for 30 minutes, 15 μL of a TRAP solution (70-100 μM) were added as agonist, and kinetics were recorded at 650 nm in a SpectraMax 340 at 37° C. for 20 minutes while shaking. The areas under the curves of negative control (Tyrode's/DMSO) and positive control (15 μl of agonist/DMSO) were calculated and the difference was fixed as the 100% value. The substances to be tested were pipetted as serial dilutions in duplicate determination, the AUC was likewise determined for each substance concentration, and the % inhibition of the AUC compared with the control was calculated. On the basis of the % inhibition, the IC50 was calculated by nonlinear regression analysis according to the 4-parameter equation.

T1 sequence (P25116 22-425): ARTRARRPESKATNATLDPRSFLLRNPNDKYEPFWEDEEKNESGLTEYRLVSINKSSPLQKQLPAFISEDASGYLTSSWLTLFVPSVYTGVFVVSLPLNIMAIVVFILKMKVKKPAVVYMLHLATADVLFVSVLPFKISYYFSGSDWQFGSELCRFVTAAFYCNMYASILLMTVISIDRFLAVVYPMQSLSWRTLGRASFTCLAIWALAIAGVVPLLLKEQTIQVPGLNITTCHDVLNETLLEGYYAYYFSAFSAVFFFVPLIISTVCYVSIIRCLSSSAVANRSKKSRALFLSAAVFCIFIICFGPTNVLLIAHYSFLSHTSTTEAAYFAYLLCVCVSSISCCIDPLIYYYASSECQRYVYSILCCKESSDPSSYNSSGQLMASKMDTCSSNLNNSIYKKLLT

| IC50 (PAR1 [1]) | IC50 (PAR1 [2]) | Compound |
| --- | --- | --- |
| 1400 nM |  | CCC(CC)Oc1nn2c(N)n[n+](CC(=O)c3cc(N4CCOCC4)c(OC)c(C(C)(C)C)c3)c2cc1C1CC1 [Example 76, 3-Amino-1-[2-(3-tert-butyl-4-methoxy-5-morpholin-4-ylphenyl)-2-oxoethyl]-7-cyclopropyl-6-(1-ethylpropoxy)-[1,2,4]triazolo[4,3-b]pyridazin-1-ium chloride] |
| 10000 nM |  | CCC(CC)Oc1ccc2n(n1)c(N)n[n+]2CC(=O)c1cc(OC)cc(OCC2CCCCC2)c1 [Example 47, 3-Amino-1-[2-(3-cyclohexylmethoxy-5-methoxyphenyl)-2-oxoethyl]-6-(1-ethylpropoxy)-[1,2,4]triazolo[4,3-b]pyridazin-1-ium chloride] |
| 136 nM |  | CCOc1cc(C(=O)C[n+]2nc(N)n3nc(OC(CC)CC)ccc32)cc(C(C)(C)C)c1OCC [Example 29, 3-Amino-1-[2-(3-tert-butyl-4,5-diethoxyphenyl)-2-oxoethyl]-6-(1-ethylpropoxy)-[1,2,4]triazolo[4,3-b]pyridazin-1-ium chloride] |
|  | 126 nM | COc1c(N2CCOCC2)cc(C(=O)C[n+]2nc(N)n3cc(C(F)(F)F)ccc32)cc1C(C)(C)C [Example 4, 3-Amino-1-[2-(3-tert-butyl-4-methoxy-5-morpholin-4-ylphenyl)-2-oxoethyl]-6-trifluoromethyl-[1,2,4]triazolo[4,3-a]pyridin-1-ium trifluoroacetate] |
|  | 240 nM | CCC(CC)Oc1ccc2n(n1)c(N)n[n+]2CC(=O)c1cc(OC)c(OC)c(OCC2CCCCC2)c1 [Example 38, 3-Amino-1-[2-(3-cyclohexylmethoxy-4,5-dimethoxyphenyl)-2-oxoethyl]-6-(1-ethylpropoxy)-[1,2,4]triazolo[4,3-b]pyridazin-1-ium chloride] |
|  | 4400 nM | CCOC(=O)c1cn2c(N)n[n+](CC(=O)c3cc(N4CCOCC4)c(OC)c(C(C)(C)C)c3)c2cc1OCC [Example 8, 3-Amino-1-[2-(3-tert-butyl-4-methoxy-5-morpholin-4-yl-phenyl)-2-oxoethyl]-7-ethoxy-6-ethoxycarbonyl-[1,2,4]triazolo[4,3-a]pyridin-1-ium trifluoroacetate] |
|  | < 14 nM | CCOc1ccc2n(n1)c(N)n[n+]2CC(=O)c1cc(NC(C)=O)cc(S(F)(F)(F)(F)F)c1 [Example 1, 1-{2-[3-Acetylamino-5-(pentafluorosulfanyl)phenyl]-2-oxoethyl}-3-amino-6-ethoxy-[1,2,4]triazolo[4,3-b]pyridazin-1-ium trifluoroacetate] |
| 152 nM |  | CCOCc1cc(C(=O)C[n+]2nc(N)n3nc(OC(CC)CC)ccc32)cc(C(C)(C)C)c1 [Example 27, 3-Amino-1-[2-(3-tert-butyl-5-ethoxymethylphenyl)-2-oxoethyl]-6-(1-ethylpropoxy)-[1,2,4]triazolo[4,3-b]pyridazin-1-ium chloride] |
| 1700 nM |  | CCOc1nn2c(NC)n[n+](CC(=O)c3cc(N4CCOCC4)c(OC)c(C(C)(C)C)c3)c2c(C)c1C [Example 72, 1-[2-(3-tert-Butyl-4-methoxy-5-morpholin-4-ylphenyl)-2-oxoethyl]-6-ethoxy-7,8-dimethyl-3-methylamino-[1,2,4]triazolo[4,3-b]pyridazin-1-ium trifluoroacetate] |
| 8400 nM |  | CCOc1nn2c(N)n[n+](CC(=O)c3cc(OCCCO)c(OC)c(C(C)(C)C)c3)c2cc1CC [Example 82, 3-Amino-1-{2-[3-tert-butyl-5-(3-hydroxypropoxy)-4-methoxyphenyl]-2-oxoethyl}-6-ethoxy-7-ethyl-[1,2,4]triazolo[4,3-b]pyridazin-1-ium chloride] |
| 114 nM |  | CCC(CC)Oc1ccc2n(n1)c(N)n[n+]2CC(=O)c1cc(OC)cc(C(C)C)c1 [Example 46, 3-Amino-6-(1-ethylpropoxy)-1-]2-(3-isopropyl-5-methoxyphenyl)-2-oxoethyl]-[1,2,4]triazolo[4,3-b]pyridazin-1-ium chloride] |
| 601 nM |  | CCC(CC)Oc1ccc2n(n1)c(N)n[n+]2CC(=O)c1cc(Cl)cc(OC)c1 [Example 40, 3-Amino-1-[2-(3-chloro-5-methoxyphenyl)-2-oxoethyl]-6-(1-ethylpropoxy)-[1,2,4]triazolo[4,3-b]pyridazin-1-ium chloride] |
|  | 1080 nM | CC(C)(C)c1cc(C(=O)C[n+]2nc(N)n3ccccc32)cc(C(C)(C)C)c1O [Example 3, 3-Amino-1-[2-(3,5-di-tert-butyl-4-hydroxyphenyl)-2-oxoethyl]-[1,2,4]triazolo[4,3-a]pyridin-1-ium trifluoroacetate] |
| 132 nM |  | CCC(CC)Oc1ccc2n(n1)c(N)n[n+]2CC(=O)c1cc(OCC2CC2)cc(C(C)(C)C)c1 [Example 35, 3-Amino-1-[2-(3-tert-butyl-5-cyclopropylmethoxyphen-yl)-2-oxoethyl]-6-(1-ethylpropoxy)-[1,2,4]triazolo[4,3-b]pyridazin-1-ium chloride] |
|  | 6 nM | CCOc1cc(C(=O)C[n+]2nc(N)n3nc(OC(CC)CC)ccc32)cc(C(C)(C)C)c1 [Example 32, 3-Amino-1-[2-(3-tert-butyl-5-ethoxyphenyl)-2-oxoethyl]-6-(1-ethylpropoxy)-[1,2,4]triazolo[4,3-b]pyridazin-1-ium chloride] |
| 85 nM |  | CCC(CC)Oc1ccc2n(n1)c(N)n[n+]2CC(=O)c1cc(OCCOC)cc(C(C)(C)C)c1 [Example 54, 3-Amino-1-{2-[3-tert-butyl-5-(2-methoxyethoxy)phenyl]-2-oxoethyl}-6-(1-ethylpropoxy)-[1,2,4]triazolo[4,3-b]pyridazin-1-ium chloride] |
| 2100 nM |  | CCc1ccc2n(n1)c(N)n[n+]2CC(=O)c1cc(N2CCOCC2)c(OC)c(C(C)(C)C)c1 [Example 60, 3-Amino-1-[2-(3-tert-butyl-4-methoxy-5-morpholin-4-ylphenyl)-2-oxoethyl]-6-ethyl-[1,2,4]triazolo[4,3-b]pyridazin-1-ium trifluoroacetate] |
|  | 5 nM | CCC(CC)Oc1ccc2n(n1)c(N)n[n+]2CC(=O)c1cc(OC)cc(S(F)(F)(F)(F)F)c1 [Example 26, 3-Amino-6-(1-ethylpropoxy)-1-{2-[3-methoxy-5-(pentafluorosulfanyl)phe-nyl]-2-oxoethyl}-[1,2,4]triazolo[4,3-b]pyridazin-1-ium trifluoroacetate] |

| Compound | IC50 (PAR1 [1]) | IC50 (PAR1 [2]) |
| --- | --- | --- |
| CCCCOc1ccc2n(n1)c(N)n[n+]2CC(=O)c1cc(COC)cc(C(C)(C)C)c1 [Example 39, 3-Amino-6-butoxy-1-[2-(3-tert-butyl-5-methoxymethylphenyl)-2-oxoethyl]-[1,2,4]triazolo[4,3-b]pyridazin-1-ium chloride] |  | 37 nM |
